Experimental data as given in ChEMBL document CHEMBL1201862, “PubChem BioAssay data set” (2004).
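Method: 48-hour compound exposure of cells in 96-well plates, five concentrations, linear interpolation of endpoints. GI50: concentration for 50% inhibition of growth.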 Active and inactive are the calls of the source. Rule as the data show it: active = GI50 up to about 1.1 µM and inactive = higher.

Tests used:
Assay in all cases: growth of human tumour cells (NCI), 48 h
CAKI-1 = test system: CAKI-1
MDA-N = test system: MDA-N
UACC-257 = test system: UACC-257
SF-539 = test system: SF-539
NCI-H522 = test system: NCI-H522
NCI/ADR-RES = test system: NCI/ADR-RES
K562 = test system: K562
MCF7 = test system: MCF7
SK-MEL-28 = test system: SK-MEL-28
EKVX = test system: EKVX
SK-OV-3 = test system: SK-OV-3
RPMI-8226 = test system: RPMI-8226
PC-3 = test system: PC-3
MDA-MB-231 = test system: MDA-MB-231
OVCAR-5 = test system: OVCAR-5
IGROV-1 = test system: IGROV-1
OVCAR-4 = test system: OVCAR-4
CCRF-CEM = test system: CCRF-CEM
LOX IMVI = test system: LOX IMVI

Measured: GI50

NS(=O)(=O)c1ccc(NCc2cnc3ccccc3c2)cc1
inactive: CAKI-1 > 100 µM | MDA-N > 100 µM | UACC-257 > 100 µM | SF-539 30.5 µM | NCI-H522 28.1 µM | NCI/ADR-RES 83.8 µM | K562 > 100 µM | MCF7 > 100 µM | SK-MEL-28 > 100 µM | EKVX > 100 µM | SK-OV-3 > 100 µM | RPMI-8226 > 100 µM | PC-3 > 100 µM | MDA-MB-231 > 100 µM | OVCAR-5 > 100 µM | IGROV-1 49.4 µM | OVCAR-4 > 100 µM

CNC(=O)CNC(=O)N(C[C@@H]1CCCN1C(=O)[C@H](CC(C)C)NC(=O)OC(C)(C)C)C(C)C
inactive: CAKI-1 > 100 µM | MDA-N > 100 µM | NCI-H522 > 100 µM | NCI/ADR-RES > 100 µM | K562 > 100 µM | MCF7 > 100 µM | SK-MEL-28 > 100 µM | EKVX > 100 µM | CCRF-CEM > 100 µM | SK-OV-3 > 100 µM | LOX IMVI > 100 µM | RPMI-8226 > 100 µM | PC-3 > 100 µM | MDA-MB-231 > 100 µM | OVCAR-5 > 100 µM | IGROV-1 > 100 µM | OVCAR-4 > 100 µM

COc1ccc(Nc2nc3ccccc3nc2C(=O)O)cc1OC
inactive: CAKI-1 29.6 µM | MDA-N > 100 µM | UACC-257 98.2 µM | SF-539 > 100 µM | NCI-H522 > 100 µM | NCI/ADR-RES 35.2 µM | K562 > 100 µM | MCF7 40.3 µM | SK-MEL-28 50.2 µM | EKVX 61.7 µM | CCRF-CEM 47.3 µM | SK-OV-3 64.4 µM | LOX IMVI 99.8 µM | RPMI-8226 65.8 µM | PC-3 > 100 µM | MDA-MB-231 56.2 µM | OVCAR-5 > 100 µM | IGROV-1 98.4 µM

COc1ccc2c(c1O)[C@@]13CCCC=C1[C@@H](C2)[N+](C)(C)CC3
inactive: CAKI-1 > 100 µM | MDA-N > 100 µM | UACC-257 79.1 µM | NCI-H522 63 µM | NCI/ADR-RES > 100 µM | K562 57.8 µM | MCF7 > 100 µM | SK-MEL-28 > 100 µM | EKVX > 100 µM | CCRF-CEM > 100 µM | SK-OV-3 > 100 µM | LOX IMVI > 100 µM | PC-3 > 100 µM | MDA-MB-231 > 100 µM | OVCAR-5 > 100 µM | IGROV-1 > 100 µM | OVCAR-4 > 100 µM

CC1(c2ccc(Cl)cc2)C=C(c2ccc(Cl)cc2)C(C#N)=C(C(C#N)C#N)N1.CNC (stereo not given)
inactive: CAKI-1 16.9 µM | MDA-N 17.3 µM | UACC-257 17.5 µM | SF-539 19.5 µM | NCI/ADR-RES 17.9 µM | K562 19.2 µM | MCF7 16.6 µM | SK-MEL-28 24.1 µM | EKVX 16.6 µM | CCRF-CEM 5.02 µM | SK-OV-3 17.1 µM | LOX IMVI 17 µM | RPMI-8226 34.4 µM | PC-3 16.6 µM | MDA-MB-231 24.9 µM | OVCAR-5 18.1 µM | IGROV-1 12.9 µM | OVCAR-4 15.1 µM

CCOC(=O)Cc1c(C)c2ccc(OC(C)=O)c(OC(C)=O)c2oc1=O
inactive: MDA-N > 100 µM | UACC-257 14.8 µM | NCI/ADR-RES 22 µM | K562 28.8 µM | MCF7 24.6 µM | SK-MEL-28 21.3 µM | EKVX 23.1 µM | CCRF-CEM 4.09 µM | SK-OV-3 > 100 µM | LOX IMVI 25.3 µM | RPMI-8226 18.3 µM | PC-3 23.3 µM | MDA-MB-231 37.1 µM | OVCAR-5 53.6 µM | IGROV-1 15.3 µM | OVCAR-4 16.5 µM

[O-][S+](CCCl)c1c2ccccc2nc2ccccc12 (stereo not given)
inactive: CAKI-1 14.8 µM | MDA-N 34.5 µM | UACC-257 > 100 µM | SF-539 31.9 µM | NCI-H522 8.45 µM | NCI/ADR-RES > 100 µM | K562 > 100 µM | MCF7 28.2 µM | SK-MEL-28 > 100 µM | EKVX > 100 µM | CCRF-CEM 21.3 µM | SK-OV-3 > 100 µM | LOX IMVI 79.4 µM | PC-3 > 100 µM | MDA-MB-231 70.6 µM | OVCAR-5 > 100 µM | IGROV-1 38.6 µM | OVCAR-4 > 100 µM

c1cn(C23C4C5C6C4C2C6C53)cn1 (stereo not given)
inactive: MDA-N > 100 µM | UACC-257 > 100 µM | SF-539 > 100 µM | NCI-H522 > 100 µM | NCI/ADR-RES > 100 µM | K562 > 100 µM | MCF7 > 100 µM | SK-MEL-28 > 100 µM | EKVX > 100 µM | CCRF-CEM > 100 µM | SK-OV-3 > 100 µM | LOX IMVI > 100 µM | RPMI-8226 > 100 µM | PC-3 > 100 µM | MDA-MB-231 > 100 µM | OVCAR-5 > 100 µM | IGROV-1 > 100 µM

O=C(NCc1ccc(Cl)c(Cl)c1)c1nc2ccccc2nc1NCc1ccc(Cl)c(Cl)c1
inactive: CAKI-1 > 100 µM | MDA-N > 100 µM | UACC-257 > 100 µM | SF-539 > 100 µM | NCI-H522 > 100 µM | NCI/ADR-RES > 100 µM | K562 > 100 µM | MCF7 > 100 µM | SK-MEL-28 > 100 µM | EKVX > 100 µM | CCRF-CEM > 100 µM | LOX IMVI > 100 µM | PC-3 > 100 µM | MDA-MB-231 > 100 µM | OVCAR-5 > 100 µM | IGROV-1 > 100 µM

CC1(C)OC[C@@H]([C@H](O)C2C=CC(=O)S2)O1 (stereo not given in full)
inactive: CAKI-1 28.1 µM | MDA-N 22.1 µM | UACC-257 26.8 µM | SF-539 27.4 µM | NCI/ADR-RES 21.5 µM | K562 25.4 µM | MCF7 30.2 µM | EKVX 31 µM | CCRF-CEM 24.1 µM | SK-OV-3 34.6 µM | LOX IMVI 15.7 µM | RPMI-8226 18.4 µM | PC-3 34 µM | MDA-MB-231 30.8 µM | OVCAR-5 63.7 µM | OVCAR-4 42.1 µM

O=[N+]([O-])/C(C(Cl)=C(Cl)Cl)=C(\NCc1ccccc1)Sc1ccccc1
inactive: CAKI-1 37.3 µM | MDA-N 31.7 µM | UACC-257 33.9 µM | SF-539 19.9 µM | NCI/ADR-RES 24.5 µM | K562 63 µM | MCF7 32.4 µM | SK-MEL-28 17.3 µM | EKVX 38.4 µM | CCRF-CEM 32 µM | SK-OV-3 34 µM | LOX IMVI 13.7 µM | RPMI-8226 34.7 µM | PC-3 27.5 µM | MDA-MB-231 40.7 µM | OVCAR-5 47 µM | OVCAR-4 28.6 µM

COc1ccc2c(c1)C(N)=C(c1ccccc1OC)C2=O
inactive: CAKI-1 > 100 µM | MDA-N > 100 µM | UACC-257 > 100 µM | SF-539 > 100 µM | NCI/ADR-RES > 100 µM | K562 > 100 µM | MCF7 > 100 µM | SK-MEL-28 > 100 µM | EKVX > 100 µM | CCRF-CEM > 100 µM | SK-OV-3 > 100 µM | LOX IMVI > 100 µM | RPMI-8226 > 100 µM | PC-3 85.7 µM | MDA-MB-231 > 100 µM | OVCAR-5 > 100 µM | IGROV-1 > 100 µM | OVCAR-4 99.5 µM

O=c1[nH]nc(Cc2ccc(Cl)cc2)n1/N=C/c1cccs1
inactive: CAKI-1 36.5 µM | MDA-N > 100 µM | UACC-257 > 100 µM | SF-539 41.3 µM | NCI-H522 23.7 µM | NCI/ADR-RES 50.5 µM | K562 > 100 µM | MCF7 44.3 µM | SK-MEL-28 > 100 µM | EKVX 23 µM | CCRF-CEM > 100 µM | SK-OV-3 43.9 µM | RPMI-8226 > 100 µM | PC-3 > 100 µM | MDA-MB-231 21.3 µM | OVCAR-5 73.3 µM | IGROV-1 23.1 µM | OVCAR-4 > 100 µM

COC(=O)[C@]12C3=C(O)C(=O)C[C@H]1OC[C@H]2C=CC3
inactive: CAKI-1 > 100 µM | MDA-N > 100 µM | UACC-257 > 100 µM | NCI-H522 20.1 µM | NCI/ADR-RES > 100 µM | K562 64 µM | MCF7 > 100 µM | SK-MEL-28 > 100 µM | EKVX > 100 µM | SK-OV-3 > 100 µM | LOX IMVI > 100 µM | RPMI-8226 > 100 µM | PC-3 > 100 µM | MDA-MB-231 > 100 µM | OVCAR-5 > 100 µM | IGROV-1 > 100 µM | OVCAR-4 > 100 µM

O=[N+]([O-])c1cccc(/N=N/c2c(O)c(S(=O)(=O)O)cc3cc(S(=O)(=O)O)ccc23)c1
inactive: CAKI-1 > 100 µM | MDA-N > 100 µM | UACC-257 > 100 µM | SF-539 > 100 µM | NCI-H522 > 100 µM | NCI/ADR-RES > 100 µM | K562 > 100 µM | MCF7 67.8 µM | SK-MEL-28 > 100 µM | EKVX > 100 µM | CCRF-CEM > 100 µM | SK-OV-3 > 100 µM | PC-3 > 100 µM | MDA-MB-231 > 100 µM | OVCAR-5 > 100 µM | IGROV-1 > 100 µM | OVCAR-4 > 100 µM

N#C[C@H]1Nc2ccccc2[C@@H](O)C1O (stereo not given in full)
inactive: CAKI-1 > 100 µM | MDA-N > 100 µM | UACC-257 > 100 µM | SF-539 > 100 µM | NCI/ADR-RES > 100 µM | K562 > 100 µM | MCF7 > 100 µM | SK-MEL-28 > 100 µM | EKVX > 100 µM | CCRF-CEM > 100 µM | SK-OV-3 > 100 µM | LOX IMVI > 100 µM | RPMI-8226 > 100 µM | PC-3 > 100 µM | MDA-MB-231 > 100 µM | OVCAR-5 > 100 µM | IGROV-1 > 100 µM | OVCAR-4 > 100 µM
